# Test: Stability tests at 5° C. and 25° C. under sealed conditions after 3 months (impurity content)
# Type: physicochemical
# Conditions: sealed packaging, % of the total weight of the composition
# Protocol: The composition in the forms of capsule A and B were packaged in sealed packers. They were stored for 3 months at 5° C. at an external humidity level of 20%, or at 25° C. at an external humidity level of 60%.
# The weight content in impurities (in % of the total weight of the composition) was assayed immediately […], then after 3 months of storage. The difference between these two percentages gives the change in impurity content.
# It is compared to that obtained for freeze-dried vinflunine ditartrate stored under the same conditions.
substance,measurement,setting,value
vinflunine ditartrate,Changes in impurity levels at 5° C.,"3 months at 5° C., external humidity 20%",+0.8%
same,Changes in impurity levels at 25° C.,"3 months at 25° C., external humidity 60%",+1.9%

# Source: patent US9173842B2, “Stable pharmaceutical composition comprising a hydrosoluble vinflunine salt” (PIERRE FABRE MEDICAMENT, priority 2007, dated 2015)
